Test results reported in the NIST ThermoML archive (doi:10.1016/j.fluid.2018.08.016).
± gives the expanded uncertainty stated by the source.

Columns and labels:
[1] = for thermal conductivity: 101.33 kPa, Modified transient plane source method; for Normal melting temperature: Crystal 1, DTA; for Triple point temperature: DSC
[2] = Molar enthalpy of transition or fusion; settings: DSC

| SMILES | thermal conductivity ([1]; 297.7 K, Crystal 2) [W/m/K] | thermal conductivity ([1]; 302.4 K, Crystal 2) [W/m/K] | thermal conductivity ([1]; 337.7 K, Liquid) [W/m/K] | thermal conductivity ([1]; 343.1 K, Liquid) [W/m/K] | thermal conductivity ([1]; 348 K, Liquid) [W/m/K] | thermal conductivity ([1]; 353 K, Liquid) [W/m/K] | Normal melting temperature [1] [°C] | Triple point temperature ([1]; Crystal 2) [K] | Molar enthalpy of transition or fusion ([2]; Crystal 1) [kcal/mol] | Molar enthalpy of transition or fusion ([2]; Crystal 2) [kcal/mol] | thermal conductivity ([1]; 302.3 K, Crystal 2) [W/m/K] | thermal conductivity ([1]; 297.6 K, Crystal 2) [W/m/K] | thermal conductivity ([1]; 333 K, Liquid) [W/m/K] | other results |
| --- | --- | --- | --- | --- | --- | --- | --- | --- | --- | --- | --- | --- | --- | --- |
| CCCCCCCCCCCCCCCCCCCCCCCCCCCC [octacosane] | 0.514 ± 0.031 | 0.489 ± 0.03 | 0.152 ± 0.005 | 0.151 ± 0.005 | 0.149 ± 0.005 | 0.149 ± 0.005 | 60.2 ± 1 | 330.4 ± 0.8 | 15.1 ± 0.55 | 8.39 ± 0.311 | – | – | – | thermal conductivity ([1]; 308 K, Crystal 2): 0.471 ± 0.029 W/m/K; thermal conductivity ([1]; 312.7 K, Crystal 2): 0.469 ± 0.028 W/m/K; thermal conductivity ([1]; 318.6 K, Crystal 2): 0.473 ± 0.031 W/m/K; thermal conductivity ([1]; 323.4 K, Crystal 2): 0.505 ± 0.032 W/m/K |
| CCCCCCCCCCCCCCCCCCCCCCCCCCCCCC [triacontane] | 0.616 ± 0.038 | – | – | 0.153 ± 0.005 | 0.152 ± 0.005 | – | 64.0 ± 1.5 | 334.2 ± 0.8 | 16.7 ± 0.598 | 9.03 ± 0.335 | 0.603 ± 0.036 | – | – | thermal conductivity ([1]; 307.8 K, Crystal 2): 0.556 ± 0.034 W/m/K; thermal conductivity ([1]; 312.6 K, Crystal 2): 0.612 ± 0.037 W/m/K; thermal conductivity ([1]; 318.5 K, Crystal 2): 0.559 ± 0.035 W/m/K; thermal conductivity ([1]; 323.3 K, Crystal 2): 0.514 ± 0.033 W/m/K; thermal conductivity ([1]; 328 K, Crystal 2): 0.536 ± 0.034 W/m/K; thermal conductivity ([1]; 353.5 K, Liquid): 0.151 ± 0.005 W/m/K |
| CCCCCCCCCCCCCCCCCCCCCCCCCC [hexacosane] | – | 0.524 ± 0.031 | – | 0.149 ± 0.006 | 0.148 ± 0.005 | – | 55.7 ± 0.5 | 325.7 ± 0.8 | 13.2 ± 0.837 | 7.37 ± 0.287 | – | 0.499 ± 0.031 | 0.151 ± 0.005 | thermal conductivity ([1]; 307.8 K, Crystal 2): 0.484 ± 0.032 W/m/K; thermal conductivity ([1]; 312.7 K, Crystal 2): 0.513 ± 0.032 W/m/K; thermal conductivity ([1]; 318.5 K, Crystal 2): 0.574 ± 0.036 W/m/K; thermal conductivity ([1]; 337.8 K, Liquid): 0.15 ± 0.005 W/m/K; thermal conductivity ([1]; 353.1 K, Liquid): 0.147 ± 0.005 W/m/K |
| CCCCCCCCCCCCCCCCCCCCCCCC [tetracosane] | – | – | – | 0.146 ± 0.005 | 0.146 ± 0.005 | 0.145 ± 0.006 | 50.0 ± 0.5 | 320.8 ± 0.8 | 12.2 ± 1.27 | 7.41 ± 0.43 | 0.545 ± 0.033 | 0.594 ± 0.036 | 0.149 ± 0.005 | thermal conductivity ([1]; 307.7 K, Crystal 2): 0.545 ± 0.033 W/m/K; thermal conductivity ([1]; 312.9 K, Crystal 2): 0.603 ± 0.036 W/m/K; thermal conductivity ([1]; 323.1 K, Liquid): 0.152 ± 0.005 W/m/K; thermal conductivity ([1]; 328 K, Liquid): 0.151 ± 0.005 W/m/K; thermal conductivity ([1]; 337.6 K, Liquid): 0.148 ± 0.005 W/m/K |
| CCCCCCCCCCCCCCCCCCCCCC [docosane] | – | 0.668 ± 0.041 | 0.145 ± 0.005 | – | – | 0.142 ± 0.005 | 43.5 ± 0.5 | 315.6 ± 0.8 | 9.92 ± 0.359 | 6.92 ± 0.263 | – | 0.624 ± 0.039 | 0.146 ± 0.005 | thermal conductivity ([1]; 307.9 K, Crystal 2): 0.637 ± 0.04 W/m/K; thermal conductivity ([1]; 318.1 K, Liquid): 0.151 ± 0.005 W/m/K; thermal conductivity ([1]; 323 K, Liquid): 0.15 ± 0.005 W/m/K; thermal conductivity ([1]; 328.1 K, Liquid): 0.148 ± 0.005 W/m/K; thermal conductivity ([1]; 343 K, Liquid): 0.144 ± 0.005 W/m/K; thermal conductivity ([1]; 347.9 K, Liquid): 0.143 ± 0.005 W/m/K |
| CCCCCCCCCCCC [dodecane] | – | – | 0.13 ± 0.005 | – | – | – | – | – | – | – | – | – | – | thermal conductivity ([1]; 318.2 K, Liquid): 0.135 ± 0.004 W/m/K; thermal conductivity ([1]; 323.2 K, Liquid): 0.134 ± 0.005 W/m/K; thermal conductivity ([1]; 328.1 K, Liquid): 0.133 ± 0.005 W/m/K; thermal conductivity ([1]; 333.1 K, Liquid): 0.131 ± 0.005 W/m/K; thermal conductivity ([1]; 343.2 K, Liquid): 0.128 ± 0.005 W/m/K; thermal conductivity ([1]; 347.9 K, Liquid): 0.127 ± 0.005 W/m/K; thermal conductivity ([1]; 352.8 K, Liquid): 0.127 ± 0.005 W/m/K |
| CCCCCCCCCCCCCCCCCCCCCCCCCCCCCCCC [dotriacontane] | 0.574 ± 0.034 | – | – | – | 0.152 ± 0.006 | – | 69 ± 0.5 | 338.1 ± 0.8 | 18 ± 0.693 | 9.3 ± 0.359 | 0.574 ± 0.036 | – | – | thermal conductivity ([1]; 307.5 K, Crystal 2): 0.585 ± 0.036 W/m/K; thermal conductivity ([1]; 312.8 K, Crystal 2): 0.607 ± 0.038 W/m/K; thermal conductivity ([1]; 318 K, Crystal 2): 0.585 ± 0.037 W/m/K; thermal conductivity ([1]; 323.1 K, Crystal 2): 0.561 ± 0.035 W/m/K; thermal conductivity ([1]; 328 K, Crystal 2): 0.588 ± 0.036 W/m/K; thermal conductivity ([1]; 332.6 K, Crystal 2): 0.621 ± 0.038 W/m/K; thermal conductivity ([1]; 343 K, Liquid): 0.153 ± 0.006 W/m/K; thermal conductivity ([1]; 353.1 K, Liquid): 0.149 ± 0.005 W/m/K |
